In patent US20160237450A1, “METHOD FOR ENHANCING DROUGHT TOLERANCE IN PLANTS” (Plant Response Biotech S.L., priority 2015, published 2016):

What was measured:
Type in all cases: in vivo
[1] = tested on: strawberry plants ('Sabrina', 'Candonga', 'Fortuna'); experiment: Strawberry fruit production without drought stress (trade-off); conditions: no drought stress; for Strawberry fruit production, % Control (2013) / Strawberry fruit production, % Control (2014): 1 g/l spray every 4 weeks for 3 months
Method: (§1) In order to determine the plant yield productivity under normal conditions, ‘Sabrina’, ‘Candonga’ and ‘Fortuna’ strawberry varieties, leek, lettuce, “Iceberg” variety, broccoli “Parthenon” variety, celery or kohlrabi plants, were grown under standard production conditions and 120 plants of each variety per treatment (where the treatment was a control comprising standard watering or 1 g/L of TMAO di-hydrate spray every four weeks) were analyzed. Plants were located in four (4) different positions for each group of 30 plants from the same treatment. Fruits, leaves or roots were harvested from individual plants and total weight was determined for each plant.
Fruit yield was determined in ‘Sabrina’, ‘Candonga’ and ‘Fortuna’ strawberry plants treated with 1 g/l of TMAO di-hydrate or water as described above in order to evaluate the trade-off costs of the treatment with no drought stress.

[2] = tested on: sunflower plants; experiment: Sunflower field chlorophyll content and seed production after seed treatment; conditions: seed treatment 1 g/l/Kg, natural stress
Method: (§2) In order to determine the drought or drought stress tolerance after seed treatments with TMAO di-hydrate and germination in the presence of TMAO di-hydrate, barley “Hispanic” seeds, corn “FAO700” seeds, and “Sambro” sunflower seeds were surface sterilized for 3 minutes in ethanol 70%, then rinsed twice and finally included in a pre-treatment solution of 1 g/L TMAO di-hydrate solution (or just water) under shaking for 3 hours at a dose of 1 litre per Kg of seeds. Then, the seeds were sown in randomized plots of 10 sqm in a surface of 2.000 sqm. Chlorophyll content was measured 1 month before harvest. In corn irrigation was applied in half of the plots while the other half only received an initial establishment watering. The barley plots received 200 l of rain per m^2 through the growing season. Some of the plots received a second spray treatment with 1 g/liter of TMAO. […] At least 3 independent plants were treated per experiment.
TMAO di-hydrate applied exogenously which increases the endogenous content of TMAO as if the plants were overexpressing an FMO protein at least 4 times increases plant production in sunflower plants grown in the field without external irrigation. ‘Sambra” sunflower seeds were sown, grown and treated as described above. Seed treatment (1 g/l/Kg TMAO) increased plant chlorophyll content and seed production. […] Both chlorophyll and weight differences between control and TMAO groups are statistically significant. Relative chlorophyll content values are obtained by optical absorbance in two different wavebands: 653 nm (chlorophyll) and 931 nm (Near Infra-Red).

[3] = tested on: corn plants ('FAO700'); experiment: Corn chlorophyll content under limited water; conditions: 30% water; 1 g/L spray; after three months
Method: as §2
TMAO di-hydrate applied exogenously increases plant production in corn which increases the endogenous content of TMAO as if the plants were overexpressing an FMO protein at least 4 times under limited water irrigation. ‘FAO700” corn seeds were sown, grown and treated as described above. […] After this time, the absorbance of the suspension (OD663) was determined as an indicator of chlorophyll concentration.

[4] = tested on: pepper plants ('Palermo'); experiment: Pepper fruit production, spray or constant irrigation
Description: TMAO di-hydrate applied exogenously which increases the endogenous content of TMAO as if the plants were overexpressing an FMO protein at least 4 times increases pepper production per plant and pepper fruit weight under limited water irrigation and under no stress. ‘Palermo’ pepper seeds were sown, grown and treated as described above.

[5] = tested on: leek plants; experiment: Yield production without drought stress, leek; conditions: 1 g/l spray every 4 weeks for 3 months, no drought stress
Method: as §1
Root or leaves yield was determined in the plants treated with 1 g/l of TMAO di-hydrate or water as described above in order to evaluate the trade-off costs of the treatment with no drought stress.

[6] = 30% water, 1 g/L in every irrigation

What does the source list for `C[N+](C)(C)[O-].O.O` [TMAO di-hydrate, trimethylamine N-oxide di-hydrate]?
difference in fruit production versus water-treated plants ([1]; 1 g/l): no significant difference; Strawberry fruit production, % Control (2013) ([1]; Candonga): 102%; Strawberry fruit production, % Control (2014) ([1]; Candonga): 106%; Strawberry fruit production, % Control (2013) ([1]; Fortuna): 101%; Strawberry fruit production, % Control (2014) ([1]; Fortuna): 105%; Strawberry fruit production, % Control (2013) ([1]; Sabrina): 106%; Strawberry fruit production, % Control (2014) ([1]; Sabrina): 115%; Strawberry fruit production, % Control (2013) ([1]; Total of varieties): 105%; Strawberry fruit production, % Control (2014) ([1]; Total of varieties): 111%; % GAIN/LOSS RESPECT TO THE CONTROL, chlorophyll content [2]: 30%; % GAIN/LOSS RESPECT TO THE CONTROL, weight of seeds from 1 plant [2]: 77.7%; C[…] (OD663/OD931, AVERAGE VALUE) [2]: 21.17 ± 0.54; WEIGHT (GRAMS) OF SEEDS FROM 1 PLANT, AVERAGE VALUE [2]: 161.3 ± 13.1 GRAMS; OD663 ABSORVANCE (CHLOROPHYLL a) [3]: 0.7278 ± 0.076; increase in average fruit weight production per pepper plant versus 100% irrigation untreated [4, 6]: 13.3%; increase in average weight per pepper fruit versus 100% irrigation untreated [4, 6]: 11.9%; AVERAGE FRUIT WEIGHT (GRAMS) PER PEPPER PLANT ([4]; 30% water, 1 g/L irrigation): 545.0 ± 36.4 GRAMS; AVERAGE FRUIT WEIGHT (GRAMS) PER PEPPER PLANT ([4]; 30% water, 1 g/L spray): 504.8 ± 46.4 GRAMS; AVERAGE WEIGHT (GRAMS) PER PEPPER FRUIT ([4]; 30% water, 1 g/L spray): 33.5 ± 0.9 GRAMS; increase in average fruit weight production per pepper plant versus 100% irrigation untreated ([4]; 30% water, 1 g/L spray): 4.9%; increase in average fruit weight production per pepper plant in the absence of stress ([4]; 100% water, 1 g/L in every irrigation): 17.9%; AVERAGE FRUIT WEIGHT (GRAMS) PER PEPPER PLANT ([4]; 100% water, 1 g/L irrigation): 567.4 ± 19.6 GRAMS; AVERAGE WEIGHT (GRAMS) PER PEPPER FRUIT ([4]; 100% water, 1 g/L irrigation): 35.7 ± 1.3 GRAMS; Yield production, % Control [5]: 102%
